Reference: patent US9145415B2, “Nitrogen-containing heterocyclic compound or salt thereof” (FUJIFILM Corporation, priority 2012, dated 2015)
pIC50: −log10 of the molar value. Like-named read-outs stand apart in the source and are kept apart here.

Assays:
Molm-13 cells = assay: Leukemia cell proliferation inhibition test (ATPlite), Molm-13; type: cell-based; conditions: Homo sapiens, read-out: MOLM13 cell proliferation inhibition effect
How it was run: (§1)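 Luminescent ATP read-out (firefly luciferase) used as a total cell count after 72 h compound exposure at 37° C, 5% CO2. Cells: 10,000/well in RPMI + 10% FBS. GI50 = 50% inhibition relative to 0.1% DMSO, from a sigmoid dose-response fit; duplicates.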

[1] = target: T1, human FLT3 protein (FLT3 (WT)) (Homo sapiens, UniProt P36888); assay: FLT3 inhibition test (FLT3 enzyme inhibition, time-resolved fluorescence of substrate peptide phosphorylation); type: biochemical; conditions: read-out: FLT3 (WT) enzyme inhibition activity
T1 construct: human FLT3 protein (intracellular region, 564 to 993 aa); GST; purchased Carna Biosciences; host or cells: baculovirus expression system
T1 sequence (P36888 564-993): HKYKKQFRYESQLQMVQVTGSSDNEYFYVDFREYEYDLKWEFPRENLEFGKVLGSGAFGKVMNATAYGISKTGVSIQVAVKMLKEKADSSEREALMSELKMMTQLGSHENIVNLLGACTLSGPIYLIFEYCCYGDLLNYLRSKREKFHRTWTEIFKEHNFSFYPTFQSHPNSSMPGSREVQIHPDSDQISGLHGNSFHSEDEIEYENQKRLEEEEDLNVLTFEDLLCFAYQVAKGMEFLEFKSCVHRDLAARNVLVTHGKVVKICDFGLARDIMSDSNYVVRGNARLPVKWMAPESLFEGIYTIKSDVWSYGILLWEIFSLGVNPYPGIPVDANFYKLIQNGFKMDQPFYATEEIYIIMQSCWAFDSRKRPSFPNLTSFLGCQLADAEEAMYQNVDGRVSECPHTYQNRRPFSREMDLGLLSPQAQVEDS
How it was run: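 Substrate peptide phosphorylation detected by time-resolved fluorescence after a 30 min kinase reaction at 25° C with 50 μM ATP (final). Beforehand, compound and FLT3 (WT, 1.2 μg) stood 15 min at 25° C in HEPES buffer pH 7.5 containing MgCl2, NaCl, BSA and DTT.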

MV4-11 cells = assay: Leukemia cell proliferation inhibition test (ATPlite), MV4-11; type: cell-based; conditions: Homo sapiens, read-out: MV4-11 cell proliferation inhibition effect
How it was run: as §1

[2] = MOLM-13, 72 h, Molm-13, 72 hours culture, ATPlite, GI50 per method
[3] = GST-fused human FLT3 (564 to 993 aa), ATP 50 μM
[4] = MV4-11, 72 h, MV4-11, 72 hours culture, ATPlite, GI50 per method

Compound | pIC50 (Molm-13 cells; [2]) | pIC50 [1, 3] | pIC50 (MV4-11 cells; [4]) | pIC50 (Molm-13 cells; MOLM-13, MOLM13 cell) | pIC50 ([1]; FLT3 (WT)) | pIC50 (MV4-11 cells; MV4-11, MV4-11 cell)
C=CC(=O)NCC(=O)N1CCC(NC(=O)c2cnc(NCCc3ccncc3)nc2NCCC)CC1 [Compound 6-19] | 7.00 to 8.00 | 7.00 to 8.00 | 7.00 to 8.00 | – | – | –
CCCNc1nc(NC(=O)Nc2ccncc2)ncc1C(=O)NCCCNC(=O)CN(C)C(=O)/C=C/CN(C)C [Compound 6-13] | 6.00 to 7.00 | > 8.00 | 6.00 to 7.00 | – | – | –
C[C@@H](C(=O)N[C@H]1C[C@@H](C#Cc2cnc(Nc3cccc(F)c3)nc2NCCCF)C1)N(C)C(=O)/C=C/CN(C)C [Compound 15-13, (E)-4-(Dimethylamino)-N—((S)-1-(((1S,3R)-3-((2-((3-fluorophenyl)amino)-4-((3-fluoropropyl)amino)pyrimidin-5-yl)ethynyl)cyclobutyl)amino)-1-oxopropan-2-yl)-N-methyl-2-butenamide] | > 8.00 | > 8.00 | > 8.00 | – | – | –
CCCNc1nc(Nc2ccc3cnccc3c2)ncc1C(=O)NCCCNC(=O)[C@H](C)N(C)C(=O)/C=C/CN(C)C [Compound 6-8] | > 8.00 | > 8.00 | > 8.00 | – | – | –
C=CC(=O)NCC(=O)N(C)c1cccc(NC(=O)c2cnc(NCCc3ccncc3)nc2NCCC)c1 [Compound 1-5] | 7.00 to 8.00 | 7.00 to 8.00 | 7.00 to 8.00 | – | – | –
CC(C)Nc1nc(Nc2cccc(F)c2)ncc1C#C[C@@H]1CCC[C@H](NC(=O)[C@H](C)N(C)C(=O)/C=C/CN(C)C)C1 [Compound 21-30] | – | – | – | > 8.00 | > 8.00 | > 8.00
CNc1ncc(C#C[C@H]2C[C@@H](NC(=O)[C@H](C)N(C)C(=O)/C=C/CN(C)C)C2)c(Nc2ccc(OC)cc2)n1 [Compound 13-21] | > 8.00 | > 8.00 | > 8.00 | – | – | –
CCCNc1nc(Nc2ccc(C(N)=O)cc2)ncc1C(=O)Nc1ccc(NC(=O)/C=C/CN(C)C)cc1 [Compound 3-6] | < 6.00 | > 8.00 | 6.00 to 7.00 | – | – | –
C=CC(=O)NCC(=O)Nc1cc(NC(=O)c2cnc(NCCc3ccncc3)nc2NCCC)c(C)cc1C [Compound 2-6] | 7.00 to 8.00 | 7.00 to 8.00 | 7.00 to 8.00 | – | – | –

Other lines, results leading:

pIC50 (Molm-13 cells; [2]) | pIC50 [1, 3] | pIC50 (MV4-11 cells; [4]) | pIC50 (Molm-13 cells; MOLM-13, MOLM13 cell) | pIC50 ([1]; FLT3 (WT)) | pIC50 (MV4-11 cells; MV4-11, MV4-11 cell) | Compound
> 8.00 | > 8.00 | > 8.00 | – | – | – | C[C@@H](C(=O)NCCC(C)(C)C#Cc1cnc(Nc2ccc(C#N)cc2)nc1NC1CC1)N(C)C(=O)/C=C/CN(C)C [Compound 9-27]
– | – | – | > 8.00 | > 8.00 | > 8.00 | C[C@@H](C(=O)N[C@H]1CCC[C@@H](C#Cc2cnc(Nc3ccc(F)cc3)nc2NC2CC2)C1)N(C)C(=O)/C=C/CN(C)C [Compound 21-46]
7.00 to 8.00 | > 8.00 | > 8.00 | – | – | – | CCCNc1nc(Nc2ccc(C#N)cc2)ncc1C#CCCCNC(=O)[C@H]1CCCN1C(=O)/C=C/CN(C)C [Compound 7-36]
> 8.00 | > 8.00 | > 8.00 | – | – | – | CCCNc1nc(Nc2ccc3nn(C)cc3c2)ncc1C#CCCCNC(=O)[C@H](C)N(C)C(=O)/C=C/CN(C)C [Compound 21-7]
7.00 to 8.00 | > 8.00 | 7.00 to 8.00 | – | – | – | CCCNc1cc(Nc2ccc(C#N)cc2)ncc1C#CCCCNC(=O)[C@H](C)N(C)C(=O)/C=C/CN(C)C [Compound 18-1, (S,E)-N-(1-((5-(6-((4-cyanophenyl)amino)-4-(propylamino)pyridin-3-yl)-4-pentyn-1-yl)amino)-1-oxopropan-2-yl)-4-(dimethylamino)-N-methyl-2-butenamide]
– | – | – | > 8.00 | > 8.00 | > 8.00 | CCCNc1nc(Nc2cnc3c(cnn3C)c2)ncc1C#CCCCNC(=O)[C@H](C)N(C)C(=O)/C=C/CN(C)C [Compound 22-27]
> 8.00 | > 8.00 | > 8.00 | – | – | – | CNc1nc(Nc2cccc(C#N)c2)ncc1C#CCCCNC(=O)[C@@H]1C[C@H](F)CN1C(=O)/C=C/CN(C)C [Compound 7-75]
7.00 to 8.00 | > 8.00 | 7.00 to 8.00 | – | – | – | CCCNc1nc(Nc2ccc(C#N)cc2)ncc1C#CCCCNC(=O)[C@H]1CCCCN1C(=O)/C=C/CN(C)C [Compound 7-38]
